# PubChem BioAssay AID489023 (Sanford-Burnham Center for Chemical Genomics, 2010)
# pIC50: −log10 of the molar value. Active and inactive are the calls of the source. No rule for the calls is given here.
# Tested on: 697B cells, BCR-induced NF-kB luciferase reporter luminescence
# Test: inhibitors of BCR-induced NF-kB activation, dose response, 697B cells, luciferase luminescence (AID 489023)
Compound,IC50,pIC50
Cc1ccc(-n2c(-c3ccccc3)c[n+]3c2CCc2ccccc2-3)c(C)c1,56.7 µM (inactive),–
Cc1c(CCC(=O)O)c(=O)oc2cc3oc4c(c3cc12)CCCC4,–,6.57
COc1ccc(/C=C2/SC(=S)N(CCCC(=O)Nc3ccc(O)cc3)C2=O)cc1,–,6.36
CCn1c(=O)cc(SCC(=O)N2CCC3(CC2)OCCO3)c2ccccc21,> 80 µM (inactive),–
COc1cc(NC(=O)c2ccco2)c(OC)cc1NC(=O)c1cc(OC)c(OC)c(OC)c1,24.9 µM (inactive),–
O=C(NCCCN1CCOCC1)c1cc(-c2ccc(Br)cc2)on1,48.1 µM (inactive),–
COc1ccc(C(=O)Nc2ccccc2C(=O)NCc2ccco2)cc1OC,> 80 µM (inactive),–
COc1cc(Br)c(C(=O)c2nccc3cc(OC)c(OC)cc23)cc1OC,> 80 µM (inactive),–
CCOc1ccc(-c2c[n+]3c(n2-c2ccccc2)CCCCC3)cc1,> 80 µM (inactive),–
Cn1c(=O)cc(Nc2ccccc2)c2c(=O)n(-c3ccccc3)c(=O)n(-c3ccccc3)c21,–,5.25
Cc1cc(OCC(=O)NC2CC2)c2c(C)c(C)c(=O)oc2c1,> 80 µM (inactive),–
COc1ccc(C(=O)Nc2ccc(OC)c([N+](=O)[O-])c2)cc1Br,> 80 µM (inactive),–
O=C(N/N=C/c1cccnc1)c1cc(-c2ccccc2OCc2ccccc2)n[nH]1,–,5.17
Cc1ccc(-c2nsc3c(N4CCC(C(N)=O)CC4)ncnc23)cc1,–,5.20
O=C(CN1C(=O)c2ccccc2S1(=O)=O)c1ccccc1Cl,–,5.95
CCc1ccc(-c2nc(CSCC(=O)NC3CC3)c(C)o2)cc1,–,6.39
O=C(Cc1cccc2ccccc12)Nc1ccc(-c2cc3ccccc3oc2=O)cc1,–,> 6.80
CCOc1ccc(/C=C2\SC(=S)N(CCC(=O)Nc3ccc(C(=O)O)cc3)C2=O)cc1,–,5.87
COc1ccc(C(=O)N/N=C/c2sc(N3CCOCC3)nc2-c2ccccc2)cc1OC,–,4.84
O=C(C1CCC1)N1CCN(S(=O)(=O)c2ccc([N+](=O)[O-])cc2)CC1,> 80 µM (inactive),–
N#CC1=C(N)Oc2cc(Nc3ccccc3)ccc2C1c1ccncc1 (centres undefined),–,5.07
Cc1ccc2nc(NC(=O)CSCC(=O)OCC(=O)c3ccc(Br)cc3)sc2c1,–,5.44
COc1ccc(C(C(=O)NC2CCCCC2)N(C(=O)CCl)c2ccc(OC)cc2)cc1 (centres undefined),–,6.24
C/C(=N\Nc1nc(Nc2ccccc2)nc(N2CCOCC2)n1)c1cccs1,–,5.06
CCCCn1c2c(c(=N)c3ccccc31)CCC2,> 80 µM (inactive),–

Compound,IC50,pIC50
Cc1ccc(O)c(NC(=O)COc2cc(C)ccc2C)c1,> 80 µM (inactive),–
O=C(CCl)N1CCN(S(=O)(=O)c2ccc3c(c2)CCC3)CC1,–,5.24
COC(=O)c1c(NC(=O)c2cccc([N+](=O)[O-])c2)sc(C(N)=O)c1C,45.6 µM (inactive),–
Cc1ccc(C)c(-n2nnnc2Sc2nnnn2-c2ccccc2)c1,–,5.88
COc1ccc(C=C(C(C)=O)C(C)=O)cc1OC,57.7 µM (inactive),–
C=CCOc1ccc(/C=C2\SC(=S)N(CCC(=O)O)C2=O)cc1,–,6.20
Cc1nc2cc(-c3ccc(Cl)cc3)nn2c(C)c1CCC(=O)NC(C)c1ccc2c(c1)OCCO2 (centres undefined),23.7 µM (inactive),–
O=C(O)COc1ccc(-c2nccc(-c3ccccn3)n2)cc1,21.7 µM (inactive),–
O=C(CN1C(=O)c2ccccc2S1(=O)=O)c1ccc(OC(F)F)cc1,–,5.74
CNC(=O)c1cc(Nc2nnc(-c3ccc(O)cc3)c3ccccc23)ccc1OC,> 80 µM (inactive),–
Cc1cccn2c(=O)c3cc(C(=O)NC4CCCCC4)c(=N)n(CCN4CCOCC4)c3nc12,> 80 µM (inactive),–
O=C(CSCCO)Nc1ccc(C23CC4CC(CC(C4)C2)C3)cc1,> 80 µM (inactive),–
Cc1ccoc1C(=O)Nc1ccc(CC(=O)O)cc1,–,5.68
CCC(C)(C)c1ccc(OCCCC[n+]2ccccc2)c(C(C)(C)CC)c1,–,4.74
COc1ccc(/C=C2\SC(=S)N(CCC(=O)Nc3ccc(C(=O)O)cc3)C2=O)cc1OC,> 80 µM (inactive),–
N#Cc1ccccc1COc1ccc(/C=C/C(=O)O)cc1,–,4.83
Cn1c(=O)n(C)c2cc(C(=O)Nc3ccc4c(c3)OCO4)ccc21,35.2 µM (inactive),–
CN1CCN(C(=O)c2ccccc2N(Cc2ccccc2)S(=O)(=O)c2ccccc2)CC1,29.2 µM (inactive),–
COc1ccc(NC(=O)c2cc(-c3ccccn3)nc3ccccc23)cc1S(=O)(=O)N(C)C,–,5.11
CC(C)(O)/C=C/C(=O)[C@](C)(O)C1[C@H](O)C[C@@]2(C)C3CC=C4C(C[C@H](O)[C@@H](O)C4(C)C)[C@]3(C)C(=O)C[C@]12C (some centres undefined),35.1 µM (inactive),–
Cc1ccc(/C=C2\SC(=S)N(CCCC(=O)NC3CCCC3)C2=O)cc1,–,5.95
COC(=O)c1[nH]c2ccc(C)cc2c1NC(=O)Nc1ccccc1OC,> 80 µM (inactive),–
O=C(Nc1nc2nc(-c3ccccc3)cc(-c3ccccc3)n2n1)c1ccco1,48.3 µM (inactive),–
O=C(N/N=C/c1ccc(Cl)cc1Cl)c1ccc(-n2cnnn2)cc1,> 80 µM (inactive),–
CCOc1ccc(NC(=O)CCCc2cc(-c3ccc(OCC)cc3)on2)cc1,–,5.71

Compound,IC50,pIC50
Cc1nn(C(C)(C)C)c(OC(=O)c2ccc(Br)o2)c1Sc1ccccc1,> 80 µM (inactive),–
CCSc1ncc(Cl)c(C(=O)Nc2sc3c(c2C(=O)NCc2cccnc2)CCCC3)n1,> 80 µM (inactive),–
COc1ccc(NC(=S)NCc2ccccc2)c(OC)c1,> 80 µM (inactive),–
O=C(Nc1cccc(Br)c1)c1ccc2c(c1)SC1=NS(=O)(=O)CCN12,–,4.80
O=C(Oc1cccc(/C=N/Nc2nc(N3CCOCC3)nc(N3CCOCC3)n2)c1)c1ccco1,–,4.74
CC(=C/c1ccco1)/C=N/NC(=O)CSc1nnc(SCc2ccc(C)cc2)s1,> 80 µM (inactive),–
O=C(CCCN1C(=O)/C(=C/c2ccccc2Cl)SC1=S)Nc1ccccn1,–,5.40
COc1ccc(C(=O)n2nc(-c3ccc(Cl)cc3)nc2N)cc1OC,–,5.89
Cc1ccc(-c2nn3c(C)nnc3c3ccccc23)cc1S(=O)(=O)NCCN1CCOCC1,31.5 µM (inactive),–
O=C(CN1C(=O)c2ccccc2S1(=O)=O)c1ccc(Cl)cc1Cl,–,6.36
Cc1ccccc1Nc1nc(Cl)c(C=O)s1,> 80 µM (inactive),–
CCC(C)NC(=O)c1c(N)n(/N=C/c2ccccn2)c2nc3ccccc3nc12 (centres undefined),23.2 µM (inactive),–
COc1ccc(NS(=O)(=O)c2ccc(-c3coc(C)n3)cc2)cc1OC,> 80 µM (inactive),–
Cc1noc(C)c1CSc1nc2[nH]ncc2c(=O)n1-c1ccccc1,> 80 µM (inactive),–
O=C(NCCC1CCCCN1S(=O)(=O)c1ccc(Cl)cc1)C(=O)NCc1ccncc1 (centres undefined),–,5.37
Cn1c(=O)n(C)c2cc(NC(=O)CSc3nnc(-c4ccccc4O)n3-c3ccccc3)ccc21,> 80 µM (inactive),–
COc1ccc(-c2nn(C)c(=O)c3ccccc23)cc1NS(C)(=O)=O,39.9 µM (inactive),–
Cn1c(=O)cc(SCC(=O)N2CCCC2)c2cc(Cl)ccc21,> 80 µM (inactive),–
CC(C)C(=O)Nc1ccc(NC(=O)c2ccc3c(c2)OCO3)cc1,–,4.76
CN(C)CCCN=Cc1c(-c2ccccc2)[nH]n(-c2nc3ccccc3s2)c1=O,–,5.24
CC1=CC(C)(C)Nc2ccc(OC(=O)c3ccco3)cc21,–,5.08
CCN(CC)C(=O)c1ccc(S(=O)(=O)Cc2ccc(C)cc2)c([N+](=O)[O-])c1,–,5.45
Cc1[nH]c2ccccc2c1C(=O)CN1C(=O)NC2(CC(C)CC(C)(C)C2)C1=O (centres undefined),–,5.16
N=c1c(C(=O)NC2CCCC2)cc2c(=O)n3ccccc3nc2n1CCN1CCOCC1,> 80 µM (inactive),–
COc1cccc(-c2noc(CCC(=O)NCCc3ccccc3)n2)c1,–,5.25

Compound,IC50,pIC50
Cn1c(=O)cc(OCCCC(=O)NC2CCCC2)c2ccccc21,34.4 µM (inactive),–
CCn1c(=O)cc(SCC(=O)N2CCN(C)CC2)c2ccccc21,> 80 µM (inactive),–
CC(C)N1C(=O)S/C(=C/c2ccc3c(c2)n(C)c(=O)n3C)C1=O,> 80 µM (inactive),–
COc1ccc(/C=C2\SC(=S)N(CCCC(=O)Nc3ccc(O)cc3)C2=O)cc1,–,5.90
C=CCOc1ccc(NC(=O)C(=O)NCCCn2ccnc2)cc1,> 80 µM (inactive),–
CCn1c(=O)cc(SCC(=O)N2CCC(C)CC2)c2ccccc21,> 80 µM (inactive),–
CC(C)CN(C(=O)COC(=O)C12CC3CC(CC(C3)C1)C2)c1c(N)n(Cc2ccccc2)c(=O)[nH]c1=O,–,5.24
COc1ccc(-c2ccoc2)cc1[C@H]1[C@H]2C=CC[C@@H](C)[C@@H]2C(=O)N1Cc1ccccc1,> 80 µM (inactive),–
CCOC(=O)C1CCN(c2ncnc3c2cnn3-c2ccc(OC)cc2)CC1,> 80 µM (inactive),–
CC(=O)Nc1ccc(Nc2nc(-c3sc(NC(C)=O)nc3C)cs2)cc1,–,5.67
CN1C(=O)c2cccc3c(S(=O)(=O)Nc4ccccc4F)ccc1c23,57.4 µM (inactive),–
CCC(C)N1C(=O)/C(=C/c2c(NCCCOC(C)C)nc3c(C)cccn3c2=O)SC1=S (centres undefined),> 80 µM (inactive),–
Cc1ccc(S(=O)(=O)N2CCCCC2CCNC(=O)C(=O)NCc2ccncc2)cc1 (centres undefined),–,4.96
Cc1c(CCC(=O)N2CCC(C(=O)O)(c3ccccc3)CC2)c(=O)oc2cc3oc4c(c3cc12)CCCC4,> 80 µM (inactive),–
COc1ccc(-c2noc(N3CCC(C(=O)Nc4cccc(OC)c4)CC3)n2)cc1,> 80 µM (inactive),–
Cn1c(=O)cc(OCCCC(=O)N2CCCCC2)c2ccccc21,> 80 µM (inactive),–
CCn1c(=O)cc(SCC(=O)N2CCOCC2)c2ccccc21,> 80 µM (inactive),–
C(=N\Nc1nc(Nc2ccccc2)nc(N2CCOCC2)n1)/c1c[nH]c2ccccc12,–,> 6.80
CCOC(=O)N1CCN(c2ncnc3c2[nH]c2ccc(OC)cc23)CC1,60 µM (inactive),–
O=C(O)CCn1c(O)c(C=C2N=c3ccccc3=N2)sc1=S,–,4.77
COc1cc(/C(C)=N\NC(N)=S)cc(OC)c1OC,70.7 µM (inactive),–
O=C(CCCN1C(=O)/C(=C/c2ccccc2Cl)SC1=S)NNC(=O)c1ccncc1,25.7 µM (inactive),–
CC(C)(C)c1ccc(-c2nnc(SCC(=O)NC3CC3)o2)cc1,> 80 µM (inactive),–
C=C1C(=O)[C@@]23C[C@H]4[C@@H]5[C@@]6(C)CCC[C@@]57[C@@H]2[C@@H](O)[C@@H]1C[C@H]3[C@H]7N4C6,–,5.54
